The source of these data is patent publication US8039648B2, “Compounds used as dyes comperable to Alexa Fluor 350 dyes” (Pierce Biotechnology, Inc., priority 2009, dated 2011).

SMILES strings stand for the structures. Where a name gives a salt, the structure may show the parent alone.

Data set [1] in a line: Absorbance spectra of the NHS dyes in PBS buffer (Example 8). Type of data set: physicochemical. Particulars: PBS buffer pH 7.2, 10 mg/ml in DMF diluted 1:1000. As to the method:
Each of NHS-AMCA (MW=330 g/mole), V07-09111-NHS “8-isomer” (MW=874.1 g/mole), V07-0144-NHS “6-isomer” (MW=874.1 g/mole) and Alexa Fluor 350-NHS, Molecular Probes (Product #A10168) were reconstituted in DMF at 10 mg/ml and then diluted 1:1000 in PBS buffer (100 mM sodium phosphate, 150 mM NaCl; pH 7.2). Absorbance of the sample was evaluated from 440 nm to 240 nm on a UV Cary Spectrophotometer (Varian).

For data set [2], the system named is biotin and mouse IgG coated white 96-well plates. Put plainly: Plate-based functional testing of streptavidin and GAM conjugates (Example 12). Particulars: for signal sensitivities and intensities of bound conjugates compared to conjugates made with AMCA-NHS: GAM and SA conjugates made with the dye, 4 μg/ml, ex 346/em 442. Type of data set: binding. How it is done: Streptavidin and GAM conjugates made in Example 11 were analyzed on biotin and mouse IgG coated white 96-well plates. The plates were coated by making a 1:1 serial dilution of biotinylated bovine serum albumin (BSA, Thermo Scientific) and mouse IgG with starting concentrations of 2 μg/ml and 10 μg/ml, respectively. One hundred μl of each dilution was added per well. The last column on each plate was considered blank (PBS buffer only). The plates were incubated overnight at 4° C. and then blocked by washing 3×200 μl with SuperBlock Blocking Buffer in PBS (Thermo Scientific). Plates were washed 2×200 μl PBS-Surfact-Amp 20 and 1×100 μl PBS. All of the conjugates were diluted to 4 μg/ml in PBS buffer, added to the plates (100 μl/well) and incubated for one hour at room temperature (RT) (about 20° C. to about 22° C.). The plates were then washed 2×200 μl with PBS containing 0.05% Surfact-Amp 20 and 1×200 μl PBS. Finally 100 μl PBS buffer was added to the wells. The fluorescence intensity of the bound conjugate was measured on Tecan Safire using optimal Alexa Fluor 350 setting (ex 346/em 442) and optimal gain. FIGS. 7A and 7B show relative fluorescent units (RFU) and signal to background ratios (S/B), respectively, of goat anti-mouse antibodies (GAM) conjugated to amino-methyl-coumarin-acetate (AMCA), V07-09111-NHS, V07-09144-NHS, and Alexa Fluor 350-NHS. FIGS. 7C and 7D show RFU and S/B, respectively, of streptavidin (SA) conjugated to AMCA, V07-09111, V07-09144, and Alexa Fluor 350.

The nature of data set [3]: UV-Vis absorption and emission maxima given with the synthesis examples. It is filed as physicochemical.
The nature of data set [4]: Absorption and emission spectra in water and ethanol (Example 9). Type of data set: physicochemical. Particulars: for emission spectrum maximum: excitation 345 nm. How it is done: Absorption spectra of compounds V07-09111 and V07-09144 (concentrations between 10 μM and 50 μM) in water and ethanol (spectral grade) were recorded (Analytik Jena Specord 205 absorption spectrometer, quartz cuvettes with a pathlength of 1 cm). For emission spectra determination, the solutions were diluted in PBS (100 mM, pH 7.4, 100 mM sodium chloride, 5 mM sodium azide) to an absorbance of around 0.1 at a 1 cm pathlength; emission spectra were recorded on a JASCO FP-6600 fluorescence spectrometer; excitation wavelength 345 nm, excitation and emission slits were 3 nm and 6 nm, respectively. Both absorption and emission spectra were normalized to the maxima for presentation in FIGS. 2, 3, 4, and 5.
FIGS. 2 and 3 show the absorbance and emission spectra of V07-09144 in water and ethanol, respectively. FIGS. 4 and 5 show the absorbance and emission spectra of V07-09111 in water and ethanol, respectively. The absorbance and emission spectra of V07-09111 are 350 nm and 430 nm in water, and 351 nm and 443 nm in ethanol, respectively. The absorbance and emission spectra of V07-09144 are 350 nm and 440 nm in water, and 351 nm and 443 nm in ethanol, respectively.

Data set [5] relates to Lamin A. Briefly: Immunofluorescence detection of Lamin A in HeLa cells with dye-GAM conjugates (Example 13). It is filed as cell-based, human. The note with it: GAM conjugates made with the dye, 4 μg/ml, similar molar excesses. How it is done: Lamin A was stained in HeLa cells to compare […]-09111-GAM and […]-09144GAM to AMCA-GAM and Alexa Fluor 350-GAM. HeLa cells were seeded at about 10,000 cells/well in a 96-well clear bottom collagen coated tissue culture plate (BD Falcon BioCoat collagen) and cultured overnight. To fix the cells, the medium was removed and replaced at 100 μl/well with freshly prepared 4% paraformaldehyde (EMS Product #15710-S) diluted in 8 mM sodium phosphate, 2 mM potassium phosphate, 140 mM sodium chloride and 10 mM potassium chloride (PBS pH 7.4) and the cells were incubated at room temperature for 15 minutes. After 15 minutes, the cells were washed 3 times with PBS. After removal of PBS the cells were permeabilized with 100 μl/well of PBS containing 0.1% Surfact-Amps X-100. The permeabilization was carried out at room temperature (RT) for 15 minutes and then the cells were washed two times with PBS. The cells were blocked at RT for 30 minutes with (100 μl/well) PBS containing 0.1% Triton X-100 and supplemented with 2% of BlockerTM BSA (Thermo Scientific). […] The images shown in FIGS. 8A-H were acquired using the appropriate shift free optical filter set with a […] on Zeiss Axio Observer Z1 fluorescence microscope using an ORCA-ER-1394 Hamamatsu, CCD Digital Camera and the AxioVison Release 4.7 Software. […]

With `Cc1c(CC(=O)ON2C(=O)CCC2=O)c(=O)oc2cc(N)c(S(=O)(=O)O)cc12` [Alexa Fluor 350-NHS, reference compound], in data set [1], the “absorbance maxima (AbsMax)” value is given as 345 nm. Moreover, the “signal sensitivities and intensities of bound conjugates compared to conjugates made with AMCA-NHS” value in data set [2] is “higher signal sensitivities and intensities”.

For `Cc1c(CC(=O)ON2C(=O)CCC2=O)c(=O)oc2cc(N)ccc12` [NHS-AMCA, succinimidyl-7-amino-4-methylcoumarin-3-acetate, reference compound], the “absorbance maxima (AbsMax)” value in data set [1] is listed as 349 nm.

For `Nc1ccc2c3c(c(=O)oc2c1S(=O)(=O)O)CCC3C(CC(=O)O)S(=O)(=O)[O-].[Na+]` (stereo not drawn) [V07-09089, 3-(7-amino-4-oxo-6-sulfo-1,2,3,4-tetrahydro-cyclopenta[c]chromen-1-yl)-3-sulfopropionic acid bis sodium salt], the “binding in a functional plate assay among the DY-350 dyes” value in data set [2] (comparison among the DY-350 dyes) was “lower binding in a functional plate assay”. In data set [3] (UV-Vis (PBS)), this compound came in with a λem of 429 nm and a λmax of 352 nm.

Consider `CCOC(=O)CCC1CCc2c1c1ccc(NC(=O)OCC)cc1oc2=O` (stereo not drawn) [V07-09096, 3-(7-ethoxycarbonylamino-4-oxo-1,2,3,4-tetrahydro-cyclopenta[c]chromen-1-yl)propionic acid ethylester], for which, in data set [3] (in methanol), the ε was determined as 23000 L/mol/cm, the λem came out at 393 nm and the λmax came to 328 nm.

In data set [4] (in ethanol), `Nc1ccc2c3c(c(=O)oc2c1S(=O)(=O)O)CCC3C(CC(=O)NCCCC(=O)O)S(=O)(=O)O` (stereo not drawn) [V07-09111, 4-[3-(7-amino-4-oxo-6-sulfo-1,2,3,4-tetrahydro-cyclopenta[c]chromen-1-yl)-3-sulfo-propionylamino]-butyric acid] gave an absorbance spectrum maximum of 351 nm and an emission spectrum maximum of 443 nm. In data set [4] (in water), this compound showed an absorbance spectrum maximum of 350 nm and an emission spectrum maximum of 430 nm. In data set [3] (UV-Vis (PBS)), this compound came in with a λem of 430 nm and a λmax of 352 nm.

On to `Nc1ccc2c3c(c(=O)oc2c1S(=O)(=O)O)CCC3C(CC(=O)NCCCC(=O)ON1C(=O)CCC1=O)S(=O)(=O)O` (stereo not drawn) [V07-09111-NHS, 4-[3-(7-amino-4-oxo-6-sulfo-1,2,3,4-tetrahydro-cyclopenta[c]chromen-1-yl)-3-sulfo-propionylamino]-butyric acid NHS ester bis diisopropyethylammonium salt], for which, in data set [1], the “absorbance maxima (AbsMax)” value was found to be 352 nm. In addition, the “specificity of staining and background compared to NHS-AMCA or NHS-Alexa Fluor 350 conjugates” value in data set [5] was “higher specificity of staining for the target with lower background”. In addition, in data set [2], the “signal sensitivities and intensities of bound conjugates compared to conjugates made with AMCA-NHS” value is “higher signal sensitivities and intensities”. In data set [3] (UV-Vis (PBS)), this compound registered a λem of 430 nm and a λmax of 352 nm.

Take `Nc1c(S(=O)(=O)O)cc2c3c(c(=O)oc2c1S(=O)(=O)O)CCC3C(CC(=O)O)S(=O)(=O)[O-].[Na+]` (stereo not drawn) [V07-09140, 3-(7-amino-4-oxo-6,8-disulfo-1,2,3,4-tetrahydro-cyclopenta[c]chromen-1-yl)-3-sulfo-propionic acid tris sodium salt]: in data set [3] (UV-Vis (PBS)), the λem was found to be 435 nm and the λmax is recorded as 350 nm.

For the compound `Nc1cc2oc(=O)c3c(c2cc1S(=O)(=O)O)C(C(CC(=O)O)S(=O)(=O)O)CC3` (stereo not drawn) [V07-09142, 3-(7-amino-4-oxo-8-sulfo-1,2,3,4-tetrahydro-cyclopenta[c]chromen-1-yl)-3-sulfo propionic acid bis sodium salt], in data set [3] (UV-Vis (PBS)), the λem came to 440 nm and the λmax is 349 nm.

Consider `Nc1cc2oc(=O)c3c(c2cc1S(=O)(=O)O)C(C(CC(=O)NCCCC(=O)ON1C(=O)CCC1=O)S(=O)(=O)O)CC3` (stereo not drawn) [V07-09144-NHS], for which the “absorbance maxima (AbsMax)” value in data set [1] stood at 347 nm. Also, the “specificity of staining and background compared to NHS-AMCA or NHS-Alexa Fluor 350 conjugates” value in data set [5] is given as “higher specificity of staining for the target with lower background”. Moreover, in data set [2], the “signal sensitivities and intensities of bound conjugates compared to conjugates made with AMCA-NHS” value is “higher signal sensitivities and intensities”.
